Values joined by “and” are separate entries in the source; they are usually repeats but may differ in a detail not shown here. Equal entries are not always repeated.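 Results reflect a 48-hour exposure of cells in 96-well plates to compound at five concentrations. The concentration for 50% growth inhibition is given as GI50. TGI marks complete inhibition of growth.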 Some results are limits rather than exact numbers.

Among the test systems are A498 renal; HOP-92 NSCLC; NCI/ADR-RES ovarian; T-47D breast; TK-10 renal; 786-0 renal; COLO 205 colon; UACC-257 melanoma; BT-549 breast; RXF 393 renal.
Common to all, as to assay: NCI tumour cell line growth inhibition, 48 h

For `CCC1(O)CC(OC2CC(N(C)C)C(OC3CC4OC5CC(=O)C(C)OC5OC4C(C)O3)C(C)O2)c2c(cc3c(c2O)C(=O)c2c(O)ccc(O)c2C3=O)C1C(=O)OC` (configuration not stated), the GI50 in the assay with A498 renal was 0.00459 µM; in the assay with NCI/ADR-RES ovarian it was 0.00629 µM and 0.0109 µM and < 0.0105 µM; in the assay with TK-10 renal it was 0.0168 µM and 0.00314 µM. Also, the TGI is 0.016 µM with A498 renal; 0.0828 µM and 0.0644 µM in the assay on HOP-92 NSCLC; 0.0943 µM and 0.224 µM and 0.171 µM with NCI/ADR-RES ovarian; 0.0172 µM and 0.0152 µM in the assay on T-47D breast.
Regarding `CCN(CC)CCNC(=O)c1ccccc1NC(=O)C(=O)Nc1ccccc1C(=O)NCCN(CC)CC`, the TGI is 42.6 µM in the assay with 786-0 renal; greater than 100 µM in the assay with A498 renal; 35.8 µM in the assay with COLO 205 colon; 98.5 µM with HOP-92 NSCLC; greater than 100 µM in the assay on TK-10 renal; 35.5 µM in the assay on UACC-257 melanoma.
On to `C1CC2=C(C1)[Se]C(=C1Sc3nsnc3S1)[Se]2`, for which the TGI in the assay on 786-0 renal, with BT-549 breast, in the assay on COLO 205 colon, with HOP-92 NSCLC, in the assay on NCI/ADR-RES ovarian and with T-47D breast was greater than 100 µM each time. Also, the TGI in the assay on TK-10 renal and in the assay with UACC-257 melanoma was greater than 100 µM in each case.
In the case of `O=C(Nc1c(O)[nH]c(=S)[nH]c1=O)c1ccccn1`, the TGI in the assay with 786-0 renal, in the assay on A498 renal, in the assay with COLO 205 colon, with HOP-92 NSCLC, with TK-10 renal and in the assay with UACC-257 melanoma was greater than 100 µM each time.
As for `CC12CC3C(CC1SCC(=O)O2)C3(C)C` (configuration not stated), the TGI in the assay with 786-0 renal, in the assay with A498 renal, in the assay with COLO 205 colon, with HOP-92 NSCLC, in the assay on TK-10 renal and in the assay on UACC-257 melanoma was greater than 100 µM in each case.
As to `O=c1cc(CNC2CCCC2)[nH]c(=O)[nH]1`, the TGI in the assay with 786-0 renal, in the assay on A498 renal, in the assay with BT-549 breast, in the assay on COLO 205 colon, in the assay with NCI/ADR-RES ovarian and in the assay on RXF 393 renal was greater than 100 µM throughout. For the same compound, the TGI with T-47D breast, in the assay with TK-10 renal and in the assay on UACC-257 melanoma was greater than 100 µM throughout.
In the case of `O=C(Cn1c(=O)oc2ccc(C(=O)c3ccc(F)cc3)cc21)c1ccc([N+](=O)[O-])cc1`, the TGI in the assay with 786-0 renal, with A498 renal, with COLO 205 colon, in the assay on HOP-92 NSCLC, in the assay with NCI/ADR-RES ovarian and in the assay on RXF 393 renal was greater than 100 µM throughout. The TGI in the assay with T-47D breast, in the assay on TK-10 renal and in the assay with UACC-257 melanoma was greater than 100 µM each time.
As for `COc1cc(/C=C/C(=O)OCC23CC[C@@]4(C(=O)O)CCC(C)[C@H](C)C4C2=CCC2[C@@]4(C)CC[C@H](O)C(C)(C)C4CC[C@]23C)ccc1O` (some centres not stated), the TGI in the assay on 786-0 renal is 31.7 µM; in the assay with A498 renal it was 68.5 µM; with BT-549 breast it was 50.6 µM; with NCI/ADR-RES ovarian, 44.9 µM; in the assay on RXF 393 renal, 47.4 µM; in the assay on T-47D breast, greater than 100 µM. In addition, the TGI is 8.9 µM in the assay with TK-10 renal and 39.4 µM in the assay with UACC-257 melanoma.
As to `CC(=O)NC1C(OCc2ccccc2)OC(CO)C(O)C1OCC(=O)NC(C)C(=O)NC(CCC(=O)NCCCCNc1ccc([N+](=O)[O-])c2[nH]c3ccccc3c(=O)c12)C(N)=O` (configuration not stated), the TGI in the assay on 786-0 renal, with A498 renal, in the assay on BT-549 breast, in the assay with COLO 205 colon, with HOP-92 NSCLC and in the assay on NCI/ADR-RES ovarian was greater than 100 µM in each case. Moreover, the TGI in the assay with T-47D breast and with TK-10 renal was greater than 100 µM each time.
As for `C[N+]1(C)CCCC1C(=O)[O-]` (configuration not stated), the TGI in the assay with 786-0 renal, in the assay on A498 renal, with COLO 205 colon, with HOP-92 NSCLC, in the assay with RXF 393 renal and in the assay with TK-10 renal was greater than 100 µM each time. The same compound registered a TGI with UACC-257 melanoma greater than 100 µM.
As to `CC[n+]1cnc(N)c2c(-c3ccc(Cl)cc3)cn(-c3ccc(C)cc3)c21`, the TGI with 786-0 renal amounted to 23.5 µM; in the assay on A498 renal it was 24 µM; with COLO 205 colon, 17.1 µM; in the assay with HOP-92 NSCLC, 24.7 µM; with NCI/ADR-RES ovarian, 26.5 µM; in the assay with RXF 393 renal, 18.2 µM. The TGI in the assay with T-47D breast came to 32.2 µM; with TK-10 renal, 31.6 µM; in the assay on UACC-257 melanoma it was 6.06 µM.
Turning to `Cc1ccc(S(=O)(=O)N/N=C/c2oc(-c3cccc([N+](=O)[O-])c3)c(-c3cccc([N+](=O)[O-])c3)c2[N+](=O)[O-])cc1`, the TGI is greater than 100 µM in the assay on 786-0 renal; greater than 100 µM in the assay with A498 renal; greater than 100 µM in the assay with COLO 205 colon; greater than 100 µM in the assay on HOP-92 NSCLC; 90.1 µM with RXF 393 renal; greater than 100 µM with TK-10 renal. In the assay with UACC-257 melanoma, this compound registered a TGI greater than 100 µM.
Take `CO/C(=N\N=C\c1cc(OC)ccc1OC)c1ccncc1`: the TGI with 786-0 renal, in the assay on A498 renal, with COLO 205 colon, with NCI/ADR-RES ovarian, in the assay on RXF 393 renal and with T-47D breast was greater than 10 µM each time. Further, the TGI in the assay with TK-10 renal is greater than 10 µM.
As for `CC(=O)OCC1OC(Nc2[nH]c(=O)n(C)c(=O)c2-c2csc(N)n2)C(OC(C)=O)C(OC(C)=O)C1OC(C)=O` (configuration not stated), the TGI in the assay with 786-0 renal, with A498 renal, in the assay with COLO 205 colon, in the assay on HOP-92 NSCLC, in the assay with TK-10 renal and in the assay on UACC-257 melanoma was greater than 100 µM in each case.
Regarding `COc1c2c(c3c(c1C1OC(C)[C@@H](C)O1)CC(C)(C)O3)C(=O)c1ccccc1C2=O` (some centres not stated), the TGI was greater than 100 µM in the assay on 786-0 renal; greater than 100 µM in the assay with COLO 205 colon; 89.7 µM in the assay with HOP-92 NSCLC; greater than 100 µM in the assay with RXF 393 renal; greater than 100 µM in the assay on TK-10 renal; greater than 100 µM in the assay with UACC-257 melanoma.
As to `COc1cc2c(cc1OCCCN1CCN(CCCOc3cc4c(cc3OC)C(=O)N3CCC[C@H]3C=N4)CC1)C=CC(C)(C)O2`, the GI50 in the assay with A498 renal is 1.15 µM; in the assay on BT-549 breast, 0.941 µM; in the assay on COLO 205 colon, 1.21 µM; in the assay with NCI/ADR-RES ovarian, 2.41 µM; in the assay on T-47D breast, 0.792 µM; with TK-10 renal, 1.46 µM. In the assay on UACC-257 melanoma, the GI50 was 1.82 µM. Besides, the TGI is 2.37 µM in the assay with A498 renal; 2.47 µM in the assay with BT-549 breast; 2.61 µM with COLO 205 colon; 5.31 µM in the assay on NCI/ADR-RES ovarian; 2.43 µM in the assay on T-47D breast; 2.87 µM in the assay with TK-10 renal. The compound also yielded a TGI in the assay with UACC-257 melanoma of 3.52 µM.
Consider `C1=C(c2ccccc2)CN(c2ccccc2)OC1`, for which the TGI in the assay with 786-0 renal, in the assay on COLO 205 colon, in the assay on RXF 393 renal and with TK-10 renal was greater than 100 µM in each case.
